Literature values in patent EP1096056A1, “Wrinkle resistant composition” (THE PROCTER & GAMBLE COMPANY, priority 1999, dated 2001).
Where a name gives a salt, the structure may show the parent alone.

What was measured:
[1] = in water

SMILES	stability over a wide pH range	water solubility [1]
Cn1sc2c(c1=O)CCC2 [Promexal, 2-methyl-4,5-trimethylene-4-isothiazolin-3-one]	4-12	
O=c1[nH]sc2ccccc12 [Proxel, 1,2-benzisothiazolin-3-one]	4-12	
[H]/N=C(\N/C(=N/[H])NCCCCCCNC(=N)NC(=N)Nc1ccc(Cl)cc1)Nc1ccc(Cl)cc1 [diacetate salt, 1,1'-hexamethylene bis(5-(p-chlorophenyl)biguanide)]		about 1.8%
[H]/N=C(\N/C(=N/[H])NCCCCCCNC(=N)NC(=N)Nc1ccc(Cl)cc1)Nc1ccc(Cl)cc1 [digluconate salt, 1,1'-hexamethylene bis(5-(p-chlorophenyl)biguanide)]		about 70%
[Na+].[O-][n+]1ccccc1[S-] [sodium pyrithione]		about 50%
